Consider 1 molecule from article PMC10555500, “Evaluation of the Antiproliferative Properties of CpRu Complexes Containing N-Methylated Triazaphosphaadamantane Derivatives” (Bioinorganic Chemistry and Applications, 2023).

The test system of one experiment is MDA-MB-231 cells. The experiment is described as follows: Complex uptake and subcellular distribution by ICP-MS. Format: cell-based, human. The following applies: MDA-MB-231, ICP-MS 106Pd. How it is done:
For the cellular uptake experiments, MDA-MB-231 cells (approx. 5·10^6 cells/5 mL medium) were exposed to the complexes at their respective IC50 concentrations and in two conditions (6 h and 24 h of incubation time) and then washed with ice-cold PBS and centrifuged to obtain a cellular pellet. The cytosol, membrane/particulate, cytoskeletal, and nuclear fractions were extracted using a FractionPREP™ cell fractionation system (BioVision, USA) and performed according to the manufacturer's protocol. The Ru (^101Ru) and Pd (^106Pd) contents in different fractions were measured by using Thermo X-Series Quadrupole ICP-MS (Thermo Scientific) after the digestion of the samples. Briefly, the samples were digested with ultrapure HNO3 (65%), H2O2, and H3PO4 in a closed pressurized microwave digestion unit (Mars5, CEM) with medium-pressure HP500 vessels and then diluted in ultrapure water to obtain 2.0% (v/v) nitric acid. The instrument was tuned using a multielement ICP-MS 71C standard solution (Inorganic Venture). Indium (115In) at […] was used as the internal standard.
For the cellular uptake experiments, MDA-MB-231 cells (approx. 5·10^6 cells / 5 mL medium) were exposed to the complexes at their respective IC50 concentrations and at two conditions (6 h and 24 h of incubation time)., then washed with ice-cold PBS and centrifuged to obtain a cellular pellet.[7] […]

For experiment [1], the target named is human serum albumin (HSA) (Homo sapiens, UniProt P02768). The experiment is described as follows: Binding to human serum albumin by steady-state and time-resolved Trp214 fluorescence. How it is done: The stock solutions of HSA were freshly prepared for each experiment by gently dissolving protein in PBS pH 7.4 (tablets from Fisher) for 1 hour to allow protein to completely hydrate. The concentration of the protein in the stock solutions was determined by spectrophotometry using the molar absorption coefficient at 280 nm ε280(HSA) = 36,850 M^−1·cm^−1 [38].
In each essay, all spectroscopic measurements were carried out on individually prepared samples to ensure the same preincubation time at (37.0 ± 0.1)°C, the same % of DMSO in the final samples, and the same exposure to excitation light and to avoid the need for dilution corrections. Moreover, for a direct titration protocol, a highly concentrated stock solution of the compounds in the buffer would be required, which would raise solubility issues. Dimethylsulfoxide (DMSO, from Fisher) was used to prepare concentrated stock solutions of each complex, followed by appropriate dilution to obtain the desired concentration. The DMSO content was kept at 2% (v/v) in PBS pH 7.4 in all samples. Dilutions were carried out immediately before sample preparation.
Fluorescence measurements were performed at 25.0 ± 0.1°C. The final protein concentration in the individually prepared samples (3.72 to 5 μM) was kept constant in each assay, and the complex concentration was varied to obtain desired HSA: Ru-complex molar ratios ranging from 1 : 0.25 to 1 : 10. A control sample containing the same amount of protein and final DMSO content and with no complex was also prepared for each experiment. Appropriate blank samples with no protein but with the same complex concentrations were prepared as well for background correction.
The steady-state fluorescence intensity was measured with excitation at 295 nm, and emission spectra were collected with bandwidths of 4 nm for both excitation and emission. For Stern–Volmer plots, the fluorescence intensity with emission at 340 nm was selected because it is near the maximum emission wavelength (so the sensitivity is close to maximum), but it is further to red in relation to the water Raman scattering peak. These values were corrected for the absorption and emission inner filter effects using the absorbance recorded for each sample at the excitation and emission wavelengths used for the steady-state quenching analysis. For time-resolved fluorescence measurements, the single-photon-counting technique was used with nanoLED N-280 (Horiba Jobin Yvon) as the pulsed excitation source (280 nm) and with emission collected at 350 nm (13 nm emission bandwidth), eliminating the contribution of the emission by tyrosine residues.
The experimental fluorescence intensity decays of HSA in buffer solution can be described by a sum of exponentials:(1) It=∑i=1npiexp−t/τi, where pi and τi are the pre-exponential factors and lifetime of component i, respectively. The amplitude or normalized pre-exponential of each lifetime component αi is pi/Σipi with Σiαi = 1. Fluorescence decays were analysed by an iterative deconvolution method using the TRFA Data Processor software (version 1.4; Minsk, Belarus), and the instrument response function was obtained using scattering by a colloidal suspension of silica (Ludox®, Sigma-Aldrich) diluted in water. Criteria for judging the quality of the fit were reduced χ^2 close to 1 and a random distribution of weighted residuals and residual autocorrelation.
To evaluate changes in the quantum yield by processes affecting the fluorescence lifetimes of HSA, the amplitude-weighted mean fluorescence lifetime ( τ¯ ) was calculated using the following equation:(2) τ¯=∑i=1nαiτi.
The stock solutions of HSA were freshly prepared for each experiment by gently dissolving the protein in PBS pH 7.4 (tablets from Fisher) for 1 hour to allow the protein to completely hydrate. The concentration of protein in the stock solutions was determined by spectrophotometry using the molar absorption coefficient at 280 nm ε280(HSA) = 36,850 M^−1 cm^−1.[8] […]

human serum albumin (HSA), sequence (P02768 25-609): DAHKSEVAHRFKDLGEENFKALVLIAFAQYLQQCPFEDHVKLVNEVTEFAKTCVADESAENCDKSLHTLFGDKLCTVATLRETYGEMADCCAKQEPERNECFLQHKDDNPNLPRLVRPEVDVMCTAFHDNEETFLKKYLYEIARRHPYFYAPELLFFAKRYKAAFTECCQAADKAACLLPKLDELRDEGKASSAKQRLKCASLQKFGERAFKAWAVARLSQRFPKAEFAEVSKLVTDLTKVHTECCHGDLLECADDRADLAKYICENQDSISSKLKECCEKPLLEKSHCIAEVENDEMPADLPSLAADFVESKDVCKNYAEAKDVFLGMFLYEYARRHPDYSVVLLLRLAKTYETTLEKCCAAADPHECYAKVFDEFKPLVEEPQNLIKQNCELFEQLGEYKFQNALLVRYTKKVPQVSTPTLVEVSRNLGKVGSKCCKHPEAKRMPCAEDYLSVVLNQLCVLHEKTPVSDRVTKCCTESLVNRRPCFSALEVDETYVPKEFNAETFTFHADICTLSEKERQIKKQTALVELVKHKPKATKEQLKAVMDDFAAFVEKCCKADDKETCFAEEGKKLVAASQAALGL

Consider `CN1CN2CN(C)C[P]([Ru+2]([P](c3ccccc3)(c3ccccc3)c3ccccc3)[P](c3ccccc3)(c3ccccc3)c3ccccc3)(C1)C2.O=S(=O)([O-])C(F)(F)F.[Cl][Pd][Cl].c1cc[cH-]c1` [Compound 11, [RuCp(PPh3)2-µ-dmoPTA-1κP-2κ^2N,N′-PdCl2](CF3SO3)], for which the “Pd amount in the membranes” value in the experiment on MDA-MB-231 cells is “only residual”. Besides, the “Emission intensity of Trp214 relative to value in the absence of compound” value in experiment [1] (20 µM compound (1:4 HSA:compound), 24 h, λem 340 nm) was about 40%. For the same molecule, in experiment [1] (HSA-Trp214 fluorescence), the Type of quenching entry is ““Dynamic” and static”. For the same molecule, the “Log K′B” value in experiment [1] (PBS pH 7.4/2% DMSO, 24 h at 37°C) was determined as 4.66 ± 0.07. In addition, the “K′B (conditional binding constant)” value in experiment [1] (PBS pH 7.4/2% DMSO, 24 h at 37°C, fluorescence lifetime Stern–Volmer) is reported as 4.58 ± 0.33 × 10^4 M^−1. Further, in experiment [1] (absorption spectra, only in the presence of HSA), the “Concentration above which aggregate formation with HSA is seen” value is “higher than 10 µM”. In addition, in experiment [1] (steady-state emission, 24 h incubation), the “Spectral shift of Trp214 emission” value is given as “small blueshift”. Also, the “Effect on amplitude-weighted mean fluorescence lifetime of HSA-Trp214” value in experiment [1] (time-resolved fluorescence, λem 350 nm) was “decreased”.
